Read-outs that look alike come from different tables or passages of the source. Marks after values point to notes of the source that are not given here.
Columns and labels:
HLA-A*30:02 [1] = target: T1, HLA-A*30:02 (Homo sapiens, UniProt P04439, D101N/D140H/D185E/E176R/F33S/G80R/H175R/K168Q/Q94H/R138E/R41S/V100E); settings: percent relative the binding of a positive control peptide; wild-type epitopes marked **; cited from earlier work
HLA-A*30:02 [2] = target: T1, HLA-A*30:02; settings: wild-type epitopes marked **; cited from earlier work
HLA-A*30:02 [3] = target: T1, HLA-A*30:02; settings: wild-type epitopes marked **; cited from earlier work; remark: listed apart in the source
HLA-A*02:01 [4] = target: T2, HLA-A*02:01 (Homo sapiens, UniProt P04439, D140Y/D185E/D98H/E176V/E277Q/G131W/G231S/I119V/I121R/I166T/I218V/L300P/L318F/N151K/N90K/P208A/P217A/Q86G/Q94H/R138H/R169H/T345S); format: binding
HLA-A*24:02 [5] = target: T3, HLA-A*24:02 (Homo sapiens, UniProt P04439, D101N/D140Y/D185E/E176V/E190D/F33S/G103R/G107R/I119L/I121M/I306V/K335N/L105A/L180Q/L300P/N151K/N90K/Q86E/Q94H/R106L/R138H/R89G/T104I/T345S/V100E/W191G/Y123F); format: binding
HLA-A*30:01 = HLA-A*30:01 (Homo sapiens, UniProt P04439, D140H/D185E/E176W/F33S/G80R/H175R/K168Q/R138E/R41S); format: binding; settings: percent relative the binding of positive control peptide […]; duplicated experiments; positive binder >40%
HLA-A*30:02 [6] = target: T1, HLA-A*30:02; format: binding; settings: percent relative the binding of positive control peptide […]; duplicated experiments; positive binder >40%
HLA-A*30:02 [7] = target: T1, HLA-A*30:02; format: binding
HLA-A*30:02 [8] = target: T1, HLA-A*30:02; format: binding; settings: time points 0-8 h
HLA-A*68:01 [9] = target: T4, HLA-A*68:01 (Homo sapiens, UniProt P04439, A269V/D185E/E176V/E277Q/E87N/F33Y/G231S/I121M/I166T/I218V/L180W/L300P/L318F/N151K/P208A/P217A/Q86R/R169H/T345S); format: binding; settings: percent relative the binding of positive control peptide […]; duplicated experiments; positive binder >40%
HLA-A*68:01 [10] = target: T4, HLA-A*68:01; format: binding
HLA-A*68:01 [11] = target: T4, HLA-A*68:01; format: binding; settings: time points 0-8 h
HLA-B*07:02 = HLA-B*07:02 (Homo sapiens, UniProt P01889); format: binding
HLA-B*58:01 [12] = target: T5, HLA-B*58:01 (Homo sapiens, UniProt P01889, A329T/C349S/D201E/D98Y/E176V/E187L/E204Q/E69T/G107R/I218V/I90N/K202T/L105A/L119I/N104I/N87E/Q89R/Q94S/R106L/R155S/R180L/R86G/S101N/S121R/S35A/S48A/T118I/V127L/V306I/V36M/Y140S/Y91M); format: binding; settings: percent relative the binding of positive control peptide […]; duplicated experiments; positive binder >40%
HLA-C*07:01 [13] = target: T6, HLA-C*07:01 (Homo sapiens, UniProt P10321, K90N/S123Y); format: binding; settings: percent relative the binding of positive control peptide […]; duplicated experiments; positive binder >40%
HLA-C*07:01 [14] = target: T6, HLA-C*07:01; assay: affinity assay (ED50); format: binding
HLA-C*07:01 [15] = target: T6, HLA-C*07:01; assay: off-rate assay (t1/2); format: binding; settings: time points 0-8 h
HLA-B*58:01 [16] = target: T5, HLA-B*58:01; format: binding
HLA-B*58:01 [17] = target: T5, HLA-B*58:01; format: binding; settings: time points 0-8 h
HLA-A*02:01 [18] = target: T2, HLA-A*02:01; format: binding; remark: listed apart in the source
HLA-A*02:01 [19] = target: T2, HLA-A*02:01; format: binding; remark: listed apart in the source
HLA-A*02:01 [20] = target: T2, HLA-A*02:01; settings: percent relative the binding of a positive control peptide; […]; cited from earlier work
HLA-A*02:01 [21] = target: T2, HLA-A*02:01; settings: cited from earlier work
HLA-A*24:02 [22] = target: T3, HLA-A*24:02; format: binding; remark: listed apart in the source
HLA-A*24:02 [23] = target: T3, HLA-A*24:02; format: binding; remark: listed apart in the source
[24] = percent relative the binding of positive control peptide […], plate-bound monomer 0.5 µg/ml, duplicated experiments, positive binder >40%
[25] = percent relative the binding of positive control peptide […], duplicated experiments, positive binder >40%

Row | Substance | Bind A*02:01 (HLA-A*02:01 [4]; [24]) [%] | Bind A*24:02 (HLA-A*24:02 [5]; [25]) [%] | Bind A*30:01 (HLA-A*30:01) [%] | Bind A*30:02 (HLA-A*30:02 [6]) [%] | Aff A*30:02 (ED50) (HLA-A*30:02 [7]) | O-rate A*30:02 (t1/2) (HLA-A*30:02 [8]) [h] | Bind A*68:01 (HLA-A*68:01 [9]) [%] | Aff A*68:01 (ED50) (HLA-A*68:01 [10]) | O-rate A*68:01 (t1/2) (HLA-A*68:01 [11]) [h] | Bind B*07:02 (HLA-B*07:02; [25]) [%] | Bind B*58:01 (HLA-B*58:01 [12]) [%] | Bind C*07:01 (HLA-C*07:01 [13]) [%] | Aff C*07:01 (ED50) (HLA-C*07:01 [14]) | O-rate C*07:01 (t1/2) (HLA-C*07:01 [15]) [h] | Aff B*58:01 (ED50) (HLA-B*58:01 [16]) | O-rate B*58:01 (t1/2) (HLA-B*58:01 [17]) [h] | also measured
1 | AYHAMSSTH [Rv0288_68–76wt] |  |  |  |  |  |  |  |  |  |  |  |  |  |  |  |  | Bind A*30:02 (HLA-A*30:02 [1]): 70** percent; Aff A*30:02 (ED50) (HLA-A*30:02 [2]): 0.3 µM; O-rate A*30:02 (t1/2) (HLA-A*30:02 [3]): 1.2 h
2 | FVRSSNLKF | 15 | 81 | 0 | 94 | 8E -06 M | 1.9 | 45 | 8e-08 M | 0.1 | 114 | 12 | 76 | 2E -08 M | 1.4 |  |  | 
3 | GHAGDMAGY [Rv0288_13–21wt] |  |  |  |  |  |  |  |  |  |  |  |  |  |  |  |  | Bind A*30:02 (HLA-A*30:02 [1]): 71** percent; Aff A*30:02 (ED50) (HLA-A*30:02 [2]): 0.04 µM; O-rate A*30:02 (t1/2) (HLA-A*30:02 [3]): 1.3 h
4 | I NT P AF E WY | 0 | 20 | 10 | 132 | 7E -07 M | 1.9 | 9 |  |  | 2 | 54 | 41 | 6E -07 M | 1 | 5e-07 M | 0.5 | 
5 | MAGSSAMIL | 54 | 26 | 0 | 13 |  |  | 0 |  |  | 57 | 55 | 94 | 1E -08 M | 0.5 | 9e-09 M | 0.8 | Aff A*02:01 (ED50) (HLA-A*02:01 [18]; […], peptide quantity for 50% binding saturation): 0.7 µM; O-rate A*02:01 (t1/2) (HLA-A*02:01 [19]; time points 0-8 h, time when 50% of peptide has dissociated): 0.4 h
6 | NTPAFEWYY | 0 | 0 | 6 | 99 | 2e-08 M | 1.5 | 69 | 1E -07 M | 0.2 | 0 | 36 | 48 | 8e-09 M | 0.9 |  |  | 
7 | QSLGAEIAV [Rv0288_26–34wt] |  |  |  |  |  |  |  |  |  |  | 30 |  |  |  | 0.0002 M | 0.1 | Bind A*02:01 (HLA-A*02:01 [20]): 48* percent; Aff A*02:01 (ED50) (HLA-A*02:01 [21]): 2 µM
8 | SSAMILAAY | 0 | 36 | 0 | 118 | 7E -09 M | 3.6 | 101 | 1E -07 M | 1.8 | 4 | 90 | 41 | 4E -07 M | 1.6 | 2E -08 M | 0.8 | 
9 | YQSGLSIVM |  |  | 27 | 123 | 8E -07 M | 0.4 | 7 |  |  |  | 0 | 68 | 7E -09 M | 0.3 |  |  | Bind A*02:01 (HLA-A*02:01 [4]): 142; Aff A*02:01 (ED50) (HLA-A*02:01 [18]): 0.05 µM; O-rate A*02:01 (t1/2) (HLA-A*02:01 [19]): 3.1 h; Bind A*24:02 (HLA-A*24:02 [5]): 59; Aff A*24:02 (ED50) (HLA-A*24:02 [22]): 0.5 µM; O-rate A*24:02 (t1/2) (HLA-A*24:02 [23]): 1.5 h; Bind B*07:02 (HLA-B*07:02): 2

— publication PMC3608651, “A Broad Profile of Co-Dominant Epitopes Shapes the Peripheral Mycobacterium tuberculosis Specific CD8+ T-Cell Immune Response in South African Patients with Active Tuberculosis” (PLoS ONE, 2013)
